Structures can show the parent of a compound that is named as a salt.
Key:
human His-PIM1 [2-313] = target: T1, human His-PIM1 [2-313] (Homo sapiens, UniProt P11309); test: PIM1 in-vitro mobility shift assay (Caliper LC3000, FL-Ahx-Bad phosphorylation); format: biochemical; conditions: 1.5 h; percent inhibition at 0.3 uM compound; read-out: PIM1 % I at 0.3 uM
T1 construct: purified human His-PIM1 [2-313] enzyme; His (N); purchased University of Dundee, Scotland; host or cells: baculovirus system
From the text: PIM1 In-Vitro Mobility Shift Assay
(§1) One may determine the activity of purified human His-PIM1 [2-313] enzyme in-vitro using a mobility shift assay on a Caliper LC3000 reader (Caliper, Mass.), which measures fluorescence of a phosphorylated and unphosphorylated FL-Ahx-Bad (FITC-(AHX)RSRHSSYPAGT-COOH, Primm 200606-00289, Primm Biotech, Mass.) and calculates a ratiometric value to determine percent turnover. One may express PIM1 (University of Dundee, Scotland) in baculovirus system with a typical yield of >85% purity.
(§2) One determines phosphorylation of the FL-Ahx-Bad in the presence and absence of the compound of interest. One preincubates 5 µl of Enzyme/Substrate/adenosine triphosphate (ATP) mix consisting of 2.4 nM PIM1, 3.6 uM FL-Ahx-Bad, and 240 uM ATP in 1.2× buffer with 2 ul of compound for 20 minutes at 25° C. One initiates reactions with 5 ul of Metal mix consisting of 24 mM MgCl2 in 1.2× buffer and incubated at 25° C. for 90 minutes and stops the reactions by addition of 5 ul of Stop mix consisting of 100 mM HEPES, 121 mM ethylenediamine tetraacetic acid, 0.8% Coatin Reagent 3 (Caliper, Mass.), and 0.01% Tween. One detects phosphorylated and unphosphorylated substrate by a Caliper LC3000 reader (Caliper, Mass.) in the presence of separation buffer consisting of 100 mM HEPES, 16 mM ethylenediamine tetraacetic acid, 0.1% Coatin Reagent 3 (Caliper, Mass.), 0.015% Brij-35, 5% DMSO, and 5.6 mM MgCl2. One may use the following separation conditions for a Caliper LC3000: −1.0 PSI, −2000 V upstream voltage, −400 V downstream voltage, 0.2 second sample sip, 45 second post sip, 10% laser strength.
The table 1 below provides the percent inhibition of PIM1 at 0.3 micromolar for Examples provided herein. Several examples were tested more than once. Variations in the experimental outcomes, negative values, or values over 100% inhibition are presumably due to experimental error inherent in the assay.

human His-PIM2 [23-299] = target: T2, human His-PIM2 [23-299] (Homo sapiens, UniProt Q9P1W9); test: PIM2 in-vitro mobility shift assay (Caliper LC3000, FL-Ahx-Bad phosphorylation); format: biochemical; conditions: 1.5 h; percent inhibition at 0.3 uM compound; read-out: PIM2 % I at 0.3 uM
T2 construct: purified human His-PIM2 [23-299] enzyme; His (N); host or cells: E. coli
From the text: PIM2 In-Vitro Mobility Shift Assay
as §1, with “His-PIM2 [23-299]” for “His-PIM1 [2-313]”, “PIM2 (produced at AstraZeneca, R&D Boston)” for “PIM1 (University of Dundee, Scotland)”, “E. coli cells” for “baculovirus system”, “>90%” for “>85%”
as §2, with “5 uL” for “5 µl”, “and 12” for “and 240”, “5 uL” for “5 ul”, “and incubates” for “and incubated”, “90 minutes. One” for “90 minutes and”, “stops” for “stops the”

T1 sequence (P11309 2-313): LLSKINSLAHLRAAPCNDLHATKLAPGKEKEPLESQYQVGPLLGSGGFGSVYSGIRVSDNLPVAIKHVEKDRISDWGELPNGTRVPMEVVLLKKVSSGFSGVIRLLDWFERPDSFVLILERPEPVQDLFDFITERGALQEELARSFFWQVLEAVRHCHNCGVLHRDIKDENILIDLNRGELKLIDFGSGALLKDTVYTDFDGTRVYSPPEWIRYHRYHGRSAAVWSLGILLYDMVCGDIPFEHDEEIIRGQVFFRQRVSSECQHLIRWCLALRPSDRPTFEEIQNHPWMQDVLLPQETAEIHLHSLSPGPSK
T2 sequence (Q9P1W9 23-299): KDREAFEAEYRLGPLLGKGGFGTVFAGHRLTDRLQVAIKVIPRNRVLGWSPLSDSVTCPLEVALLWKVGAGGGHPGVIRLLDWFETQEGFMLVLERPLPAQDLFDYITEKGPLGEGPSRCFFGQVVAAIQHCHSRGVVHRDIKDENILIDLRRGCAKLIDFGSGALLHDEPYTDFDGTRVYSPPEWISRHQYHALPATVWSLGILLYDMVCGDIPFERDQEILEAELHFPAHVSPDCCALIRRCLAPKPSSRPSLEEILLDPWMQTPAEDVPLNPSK

inhibition at 0.3 µM (human His-PIM1 [2-313]) [%] | inhibition at 0.3 µM (human His-PIM2 [23-299]) [%] | Compound
> 95 | > 95 | N[C@@H]1CCCN(c2c(/C=C3\SC(=O)NC3=O)cccc2OCC(F)(F)F)C1 [Example 122Y, (R,Z)-5-(2-(3-aminopiperidin-1-yl)-3-(2,2,2-trifluoroethoxy)benzylidene)thiazolidine-2,4-dione hydrochloride]
6.9 | < 5 | Cc1noc(C2CCN(c3c(Cl)cc(C(F)(F)F)cc3/C=C3\SC(=O)NC3=O)CC2)n1 [Example 9]
92.3 | 82.1 | COc1cc(/C=C2\SC(=O)NC2=O)c(N2CCN(C(C)C)CC2)cc1OC [Example 53, (5Z)-5-{2-(4-isopropylpiperazin-1-yl)-4,5-dimethoxybenzylidene}-thiazolidine-2,4-dione]
> 95 | > 95 | N[C@H]1CCN(c2c(Br)cccc2/C=C2\SC(=O)NC2=O)C1 [Example 122H, (S,Z)-5-(2-(3-aminopyrrolidin-1-yl)-3-bromobenzylidene)thiazolidine-2,4-dione hydrochloride]
87.4 | 58.2 | O=C1NC(=O)/C(=C/c2ccccc2N2CCOCC2)S1 [Example 82, (5Z)-5-(2-morpholin-4-ylbenzylidene)-1,3-thiazolidine-2,4-dione]
90.8 | 25.1 | CCCCN1CCCN(c2c(Cl)cc(C(F)(F)F)cc2/C=C2\SC(=O)NC2=O)CC1 [Example 27]
83.8 | 46.7 | COc1ccc(N2CCC(N(C)C)CC2)c(/C=C2\SC(=O)NC2=O)c1 [Example 44, (5Z)-5-{2-[4-(dimethylamino)piperidin-1-yl]-5-methoxybenzylidene}-1,3-thiazolidine-2,4-dione]
63.2 | 21.2 | CN(C)C(=O)CCC(=O)N[C@H]1CCN(c2c(Cl)cccc2/C=C2\SC(=O)NC2=O)C1 [Example 144]
5.4 | < 5 | O=C1NC(=O)/C(=C/c2cc(C(F)(F)F)cc(Cl)c2N2CCN(c3ccc(F)cc3)CC2)S1 [Example 7]
> 95 | 86.3 | CN(C)C1CCN(c2ccccc2/C=C2\SC(=O)NC2=O)CC1 [Example 49, (5Z)-5-{2-[4-(dimethylamino)piperidin-1-yl]benzylidene}-1,3-thiazolidine-2,4-dione]
81.9 | 8.5 | O=C1NC(=O)/C(=C/c2cc(C(F)(F)F)cc(Cl)c2N2CCC(N3CCOCC3)CC2)S1 [Example 22]
> 95 | 88.4 | N[C@H]1CCN(c2ccc(C(F)(F)F)cc2/C=C2\SC(=O)NC2=O)C1 [Example 88, (S,Z)-5-(2-(3-aminopyrrolidin-1-yl)-5-(trifluoromethyl)benzylidene)thiazolidine-2,4-dione hydrochloride]
6.6 | 16.4 | O=C1NC(=O)/C(=C/c2ccccc2N2CCN(C(=O)C3CCNCC3)CC2)S1 [Example 91, (Z)-5-(2-(4-(piperidine-4-carbonyl)piperazin-1-yl)benzylidene)thiazolidine-2,4-dione]
> 95 | 82.4 | N[C@H]1CCN(c2cc(Cl)ccc2/C=C2\SC(=O)NC2=O)C1 [Example 85, (S,Z)-5-(2-(3-aminopyrrolidin-1-yl)-4-chlorobenzylidene)thiazolidine-2,4-dione hydrochloride]
> 95 | > 95 | N[C@H]1CN(c2c(Cl)cccc2/C=C2\SC(=O)NC2=O)C[C@@H]1O [Example 122T, (Z)-5-(2-((3S,4S)-3-amino-4-hydroxypyrrolidin-1-yl)-3-chlorobenzylidene)thiazolidine-2,4-dione hydrochloride]
83.9 | 87.9 | NC(=O)c1ccc(N2CCC[C@H](N)C2)c(/C=C2\SC(=O)NC2=O)c1 [Example 122AF, (S,Z)-4-(3-aminopiperidin-1-yl)-3-((2,4-dioxothiazolidin-5-ylidene)methyl)benzamide hydrochloride]
87.4 | 52.4 | CN(C)CCN(C)S(=O)(=O)c1ccc(-c2ccccc2/C=C2\SC(=O)NC2=O)cc1 [Example 84F, (Z)-N-(2-(dimethylamino)ethyl)-2′-((2,4-dioxothiazolidin-5-ylidene)methyl)-N-methylbiphenyl-4-sulfonamide]
> 95 | > 95 | COc1cc(/C=C2\SC(=O)NC2=O)c(N2CCC(NCCN)C2)cc1OC (centres unmarked) [Example 111, (Z)-5-(2-(3-(2-aminoethylamino)pyrrolidin-1-yl)-4,5-dimethoxybenzylidene)thiazolidine-2,4-dione hydrochloride]
16.3 | < 5 | O=C1NC(=O)/C(=C/c2cc(C(F)(F)F)cc(Cl)c2N2CCN(Cc3ccc4c(c3)OCO4)CC2)S1 [Example 8]
< 5 | < 5 | O=C1NC(=O)/C(=C/c2cc(C(F)(F)F)cc(Cl)c2N2CCN(Cc3ccccc3Cl)CC2)S1 [Example 18]
> 95 | 49.6 | O=C1NC(=O)/C(=C/c2cc(C(F)(F)F)cc(Cl)c2N2CCCN(CCO)CC2)S1 [Example 26]
64.2 | 65.8 | O=C1NC(=O)/C(=C/c2ccccc2N2CCN(C(=O)c3ccc(CN4CCNCC4)cc3)CC2)S1 [Example 109, (Z)-5-(2-(4-(4-(piperazin-1-ylmethyl)benzoyl)piperazin-1-yl)benzylidene)thiazolidine-2,4-dione hydrochloride]
45.3 | 18.9 | COc1cc(/C=C2\SC(=O)NC2=O)c(-c2cccnc2)cc1OC [Example 65, (Z)-5-(4,5-dimethoxy-2-(pyridin-3-yl)benzylidene)thiazolidine-2,4-dione]
> 95 | 58 | NC1CCN(c2c(Cl)cc(C(F)(F)F)cc2/C=C2\SC(=O)NC2=O)CC1 [Example 3]
93 | 88.1 | COc1cc(/C=C2\SC(=O)NC2=O)c(N2CCC(NCCO)C2)cc1OC (centres unmarked) [Example 132, (Z)-5-(2-(3-(2-hydroxyethylamino)pyrrolidin-1-yl)-4,5-dimethoxybenzylidene)thiazolidine-2,4-dione]
> 95 | 92.8 | O=C1NC(=O)/C(=C/c2ccccc2N2CCCNCC2)S1 [Example 106, (Z)-5-(2-(1,4-diazepan-1-yl)benzylidene)thiazolidine-2,4-dione hydrochloride]
> 95 | > 95 | CC(C)Oc1cccc(/C=C2\SC(=O)NC2=O)c1N1CCC[C@@H](N)C1 [Example 122O, (R,Z)-5-(2-(3-aminopiperidin-1-yl)-3-isopropoxybenzylidene)thiazolidine-2,4-dione hydrochloride]

Compound | inhibition at 0.3 µM (human His-PIM1 [2-313]) [%] | inhibition at 0.3 µM (human His-PIM2 [23-299]) [%]
N[C@@H]1CCCN(c2c(Cl)cccc2/C=C2\SC(=O)NC2=O)C1 [Example 122D, (R,Z)-5-(2-(3-aminopiperidin-1-yl)-3-chlorobenzylidene)thiazolidin-2,4-dione hydrochloride] | > 95 | > 95
